Test results taken from patent US7435740B2 (King Pharmaceuticals Research and Development, Inc., priority 2005, dated 2008).

Assays:
[1] = biological target: T1, human recombinant A1 adenosine receptor (Homo sapiens, UniProt P30542); test: [3H]-DPCPX binding to human A1 adenosine receptor expressed in CHO cells; details: percentage given after the > bound; meaning not defined in the patent
T1 sequence (P30542 1-326): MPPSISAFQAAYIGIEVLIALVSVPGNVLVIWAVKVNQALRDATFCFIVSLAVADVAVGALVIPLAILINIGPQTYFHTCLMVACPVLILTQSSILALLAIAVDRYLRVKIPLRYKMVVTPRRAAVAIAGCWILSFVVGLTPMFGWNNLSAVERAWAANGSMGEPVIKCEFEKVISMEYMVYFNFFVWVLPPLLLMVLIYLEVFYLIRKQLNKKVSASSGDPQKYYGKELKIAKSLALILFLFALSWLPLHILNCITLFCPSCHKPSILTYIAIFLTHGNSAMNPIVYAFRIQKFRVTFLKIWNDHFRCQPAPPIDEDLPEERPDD

[2] = biological target: T2, human recombinant A3 adenosine receptors (Homo sapiens, UniProt P0DMS8); test: [3H]-MRE 3008F20 binding to hA3 receptors expressed in CHO cells; details: CHO cell membranes, 1 nM [3H]-MRE 3008F20; geometric mean, confidence limits in the line below; read-out: [3H] MRE3008F20 binding to hA3 receptors expressed in CHO cells Ki
T2 construct: expressed in transfected cells; host or cells: CHO cells (membranes)
T2 sequence (P0DMS8 1-318): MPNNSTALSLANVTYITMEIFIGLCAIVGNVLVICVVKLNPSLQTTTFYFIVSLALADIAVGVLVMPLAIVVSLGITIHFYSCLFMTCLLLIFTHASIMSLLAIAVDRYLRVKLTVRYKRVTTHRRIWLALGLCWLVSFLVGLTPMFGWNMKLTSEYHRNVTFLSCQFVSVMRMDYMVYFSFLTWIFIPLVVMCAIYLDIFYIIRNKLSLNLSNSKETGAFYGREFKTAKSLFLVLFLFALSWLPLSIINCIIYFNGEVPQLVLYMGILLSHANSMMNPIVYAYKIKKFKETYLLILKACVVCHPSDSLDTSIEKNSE

[3] = biological target: T3, human recombinant A2B adenosine receptor (Homo sapiens, UniProt P29275); test: cAMP assay in CHO hA2B; format: cell-based; details: percentage given after the > bound; meaning not defined in the patent
T3 sequence (P29275 1-332): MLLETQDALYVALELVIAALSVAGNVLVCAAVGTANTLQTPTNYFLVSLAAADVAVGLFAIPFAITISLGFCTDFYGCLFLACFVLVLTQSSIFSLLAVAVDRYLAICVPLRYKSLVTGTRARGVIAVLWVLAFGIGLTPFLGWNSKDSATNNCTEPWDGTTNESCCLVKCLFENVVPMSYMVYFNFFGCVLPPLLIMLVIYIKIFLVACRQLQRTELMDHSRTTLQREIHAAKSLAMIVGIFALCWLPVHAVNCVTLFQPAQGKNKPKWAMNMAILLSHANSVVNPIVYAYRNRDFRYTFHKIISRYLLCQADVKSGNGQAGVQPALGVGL

[4] = biological target: human recombinant A2A adenosine receptors (Homo sapiens, UniProt P29274); test: Radioligand binding to hA2A receptors expressed in CHO cells; details: percentage given after the > bound; meaning not defined in the patent
Sequence of human recombinant A2A adenosine receptors (P29274 whole entry): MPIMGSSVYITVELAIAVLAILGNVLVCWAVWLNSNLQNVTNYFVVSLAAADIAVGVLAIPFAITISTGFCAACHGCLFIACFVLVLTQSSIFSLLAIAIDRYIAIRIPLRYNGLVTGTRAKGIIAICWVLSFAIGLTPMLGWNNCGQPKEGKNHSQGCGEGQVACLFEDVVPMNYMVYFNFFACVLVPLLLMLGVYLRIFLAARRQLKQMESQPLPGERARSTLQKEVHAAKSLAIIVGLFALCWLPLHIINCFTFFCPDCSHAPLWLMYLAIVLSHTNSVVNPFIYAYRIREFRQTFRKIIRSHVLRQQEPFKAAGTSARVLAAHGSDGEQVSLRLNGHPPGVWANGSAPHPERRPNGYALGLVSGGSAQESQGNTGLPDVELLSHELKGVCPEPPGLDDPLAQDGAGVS

[3H] DPCPX binding to hA1, percentage in parentheses [1] | Ki [2] | cAMP assay in CHO hA22B, percentage in parentheses [3] | [3H] ZM 241385 binding to hA2A receptors, percentage in parentheses [4] | melting point | SMILES
84% | 36 nM | 82% | 92% | 259 °C | CCCn1c(=O)c2c(nc3[nH]c(C)c(C)n32)n(Cc2ccccc2)c1=O [Compound 25, 1-Benzyl-6,7-dimethyl-3-propyl-1H-imidazo[1,2-f]purine-2,4(3H,8H)-dione]
80% | 60 nM | 73% | 97% | 230 °C | CCCn1c(=O)c2c(nc3[nH]c(CC)c(C)n32)n(Cc2ccccc2)c1=O [Compound 26, 1-Benzyl-7-ethyl-6-methyl-3-propyl-1H-imidazo[1,2-f]purine-2,4(3H,8H)-dione]
